In USRE39198E1, “Heteroarylpiperidines, pyrrolidines and piperazines and their use as antipsychotics and analgesics” (Aventis Pharmaceuticals Inc., priority 1989, dated 2006) one finds melting point data, which are given here for 18 compounds.

Regarding `O=C1c2cccc(F)c2C(=O)N1CCN1CCC(c2noc3cc(F)ccc23)CC1` [Example 155, N-[2-[4-(6-Fluoro-1,2-benzisoxazol-3-yl)-1-piperidinyl]ethyl]-3-fluorophthalimide], the melting point (usually the temperature, or range, at which the solid turns liquid) was in the range of 142 to 143 °C.

Consider `Fc1ccc2c(C3CCN(CCCOc4ccc5[nH]ccc5c4)CC3)noc2c1` [Example 140, 6-Fluoro-3-[1-[3-[(1H-indol-5-yl)oxy]propyl]-4-piperidinyl]-1,2-benzisoxazole], for which the melting point fell in the range of 118 to 121 °C.

Take `Fc1ccc2c(C3CCN(CCC4OCCCO4)CC3)noc2c1.O=C(O)/C=C/C(=O)O`: the melting point lay in the range of 161 to 162 °C.

As for `COc1cc(C(C)=O)ccc1OCCN1CCN(c2n[nH]c3cc(Cl)ccc23)CC1` [Example 41, 1-[4-[2-[4-(6-Chloro-1H-indazol-3-yl)-1-piperazinyl]ethoxy]-3-methoxyphenyl]ethanone], the melting point was 154 to 156 °C.

The compound `CC(=O)c1ccc(O)c(OC/C=C/CN2CCC(c3noc4cc(F)ccc34)CC2)c1.Cl` gave a melting point of 208 to 210 °C.

Turning to `COc1cc(C(C)=O)ccc1OCCCN1CCC(c2nsc3cc(F)ccc23)CC1.Cl` [1-[4-[3-[4-(6-Fluoro-1,2-benzisothiazol-3-yl)-1-piperidinyl]propoxy]-3-methoxyphenyl]ethanone hydrochloride], the melting point was in the range of 221 to 223 °C.

`Fc1ccc2c(C3CCN(CC4COc5ccccc5O4)CC3)noc2c1` (stereo not drawn) [Example 91, 2-[4-(6-Fluoro-1,2-benzisoxazol-3-yl)-1-piperidinyl]methyl-1,4-benzodioxan]: the melting point fell in the range of 86 to 87 °C.

In the case of `Fc1ccc2c(C3CCN(CCCCBr)CC3)noc2c1` [Example 114, 4-[4-(6-Fluoro-1,2-benzisoxazol-3-yl)-1-piperidinyl]butyl bromide], the melting point is 243 to 245 °C.

On to `COCCN1CCC(c2noc3cc(F)ccc23)CC1.O=C(O)/C=C/C(=O)O`, for which the melting point lay in the range of 157 to 158 °C.

In turn, `O=C1c2ccccc2C(=O)N1CCN1CCC(c2noc3cc(F)ccc23)CC1` [N-[2-[4-(6-Fluoro-1,2-benzisoxazol-3-yl)-1-piperidinyl]ethyl]phthalimide] registered a melting point of 148 to 149 °C.

`CC(=O)c1ccc2c(c1)oc(=O)n2CCCN1CCC(c2noc3cc(F)ccc23)CC1` [Example 94, N-[3-[4-(6-Fluoro-1,2-benzisoxazol-3-yl)-1-piperidinyl]propyl]-6-acetyl-2-benzoxazolinone]: the melting point was in the range of 152 to 154 °C.

`CCCCCCCCCC(=O)NCCN1CCC(c2noc3cc(F)ccc23)CC1.O=C(O)/C=C/C(=O)O` showed a melting point of 108 to 110 °C.

As for `COc1cc(C(C)=O)ccc1OCCN1CCN(c2nsc3ccccc23)CC1` [Example 39, 1-[4-[2-[4-(1,2-Benzisothiazol-3-yl)-1-piperazinyl]ethoxy]-3-methoxyphenyl]ethanone], the melting point is 98 to 100 °C.

Take `Nc1cccc(OCCCN2CCC(c3noc4cc(F)ccc34)CC2)c1` [Example 71, 3-[3-[4-(6-Fluoro-1,2-benzisoxazol-3-yl)-1-piperidinyl]propoxy]aniline]: the melting point lay within 115 to 117 °C.

Turning to `COc1cc(C(C)=O)ccc1OCCCCN1CCC(c2nsc3ccccc23)CC1` [Example 46, 1-[4-[4-[4-(1,2-Benzisothiazol-3-yl)-1-piperidinyl]butoxy]-3-methoxyphenyl]ethanone], the melting point is 78 to 80 °C.

For `COc1cc(C(C)=O)ccc1OCCCN1CCC(c2n[nH]c3ccccc23)CC1` [Example 14, 1-[4-[3-[4-(1H-Indazol-3-yl)-1-piperidinyl]propoxy]-3-methoxyphenyl]ethanone], the melting point lay within 171 to 173 °C.

`CC(=O)c1ccc(OCCCN2CCC(c3nsc4cc(F)ccc34)CC2)c(O)c1` [Example 144, 1-[4-[3-[4-(6-Fluoro-1,2-benzisothiazol-3-yl)-1-piperidinyl]propoxy]-3-hydroxyphenyl]ethanone] yielded a melting point of 135 to 137 °C.

As for `CCOC(C)c1ccc(OCCCN2CCC(c3noc4cc(F)ccc34)CC2)c(OC)c1.Cl` (stereo not drawn), the melting point was 139 to 141 °C.
